Reference: patent publication US20230277486A1, “COMPOSITIONS FOR THE TREATMENT OF NON-ARTICULAR CARTILAGE-[…] CONDITIONS” (priority 2019, published 2023)

Key:
Assay type in all cases: cell-based
[1] = tested on: Primary human osteoblasts; assay: qPCR gene expression in osteoblast cultures exposed to PCA
Experimental: (§1) Cells: Primary human osteoblasts were obtained from Cell Applications, San Diego, Calif.
(§2) Cell culture: Osteoblasts were expanded in culture using the protocol provided by Cell Applications. Human Osteoblast Basal Media was supplemented with Human Osteoblast Growth Supplement (Cell Applications) containing 0.15 g/L calcium. Human Osteoblast Differentiation Media was purchased from Cell Applications, containing 0.20 g/L calcium.
(§3) Treatment: Osteoblasts were cultured in Human Osteoblast Basal Media and exposed to Protocatechuic acid (PCA) for up to 12 days at concentrations ranging from 1 μmolar to 100 μM. Osteoblasts were cultured without any PCA as negative control. Osteoblasts were cultured without any PCA in osteogenic media (Human Osteoblast Differentiation Media) as positive control (osteogenic media induces osteogenesis in osteoblasts). Each experiment was conducted in triplicate. Media were changed every 3 days.
Gene expression: Pro-osteogenic and anti-osteogenic gene expression was measured using qPCR on mRNA extracted from osteoblast cultures. Gene expression was computed as fold-change relative to control group (osteoblasts cultured without any PCA).

[2] = tested on: Primary human osteoblasts; assay: Calcium deposition in osteoblast cultures, Alizarin red stain; conditions: PCA 1 μM to 100 μM, 12 days of culture
Experimental: as §1, §2, §3
Calcium deposition: Osteoblast cultures were tested for calcium deposition using Alizarin red stain.

[3] = tested on: Primary human mesenchymal stem cells (MSC); assay: qPCR osteogenic gene expression in MSC cultures exposed to PCA; conditions: three cell lines, PCA 200 μM to 2000 μM, 14 or 21 days
Experimental: (§4) Cells: Primary human mesenchymal stem cells (MSC) were obtained from RoosterBio Inc., Frederick, Md.; ATCC, Manassas, Va.; and Cell Applications, San Diego, Calif.
(§5) Cell culture: MSC were expanded in culture, using the protocol provided by the respective suppliers, before being subjected to the experimental conditions.
(§6) Treatment: MSC were cultured in supplier-provided culture media and exposed to Protocatechuic acid (PCA) for 14 or 21 days at concentrations ranging from 200 μM to 2000 μM (2 mM). MSC were cultured without any PCA as negative control. To serve as positive control, MSC were cultured without any PCA in osteogenic media (Human Osteoblast Differentiation Media, Cell Applications, Catalog number: 417D-250). Osteogenic media is commonly used to induce osteogenesis. Each experiment was conducted in triplicate. Media was changed twice a week.
Gene expression: Osteogenic gene expression was measured using qPCR on mRNA extracted from MSC cultures. Gene expression was computed as fold-change relative to the control group (MSC cultured without any PCA). MSC cultured in osteogenic media was used as positive control as this protocol is commonly used to induce osteogenesis.

[4] = tested on: Primary human mesenchymal stem cells (MSC); assay: Calcium deposition in MSC cultures, Alizarin red stain at 21 days; conditions: three cell lines, PCA 200 μM to 2000 μM, FIG. 8
Experimental: as §4, §5, §6
Calcium deposition: MSC cultures were tested for calcium deposition using Alizarin red stain at 21 days.

SMILES: O=C(O)c1ccc(O)c(O)c1 [PCA, protocatechuic acid]
- IL-1β gene expression (anti-osteogenic gene) ([1]; PCA 1 μM to 100 μM, FIG. 2): increasing
- IL-6 gene expression (anti-osteogenic gene) ([1]; PCA 1 μM to 100 μM, FIG. 2): increasing
- MMP-1 gene expression (anti-osteogenic gene) ([1]; PCA 1 μM to 100 μM, FIG. 2): suppressing
- TNF-α gene expression (anti-osteogenic gene) ([1]; PCA 1 μM to 100 μM, FIG. 2): suppressing
- BMP-6 expression, dose dependence ([1]; PCA 1 μM to 100 μM, FIG. 3): dose-dependent effect
- osteogenic gene expression (IBSP, SPP1, TNAP, RunX2) ([1]; PCA 1 μM to 100 μM, up to 12 days, fold-change relative to control without PCA, FIG. 1): dose-dependent effect on all osteogenic genes tested
- expression of osteogenic genes versus positive control (osteogenic media) ([1]; PCA 100 μmolar (highest dose)): even higher than that measured in the positive control
- BMP-6 expression relative to negative control ([1]; PCA 100 μmolar, FIG. 3): greater than 2 fold
- calcium deposition [2]: did not increase deposition of calcium by detectable amounts
- RUNX2 expression ([3]; FIG. 5): increased RUNX2 at most dose levels
- RUNX2 expression versus positive control (osteogenic media) ([3]; FIG. 5): mostly higher than the positive control
- expression of alkaline phosphatase (TNAP) ([3]; FIG. 6): increased the expression of alkaline phosphatase relative to negative control but not greater than the osteogenic conditions
- expression of bone sialoprotein (IBSP) ([3]; FIG. 7): did not increase
- expression of osteopontin (SPP1) ([3]; versus positive control (osteogenic media), FIG. 4): even higher than that measured in the positive control
- deposition of calcium [4]: visibly increased the deposition of calcium in one of the three cell lines
